From patent US20120100989A1, “3-Aryl-4-(2-thienylmethylene)isoxazol-5(4H)-ones as Fungicides” (Bayer CropScience AG, priority 2010, published 2012)

Legend:
[1] = log P by HPLC on reversed-phase columns (C 18), EEC directive 79/831 Annex V.A8; format: physicochemical; settings: pH 2.7
Method: The log P values were measured according to EEC directive 79/831 Annex V.A8 by HPLC (High Performance Liquid Chromatography) on reversed-phase columns (C 18), using the method below:
The determination was carried out in the acidic range at pH 2.7 using the mobile phases 0.1% aqueous formic acid and acetonitrile; linear gradient from 10% acetonitrile to 95% acetonitrile.

[2] = system: caterpillars of the armyworm (Spodoptera frugiperda); experiment: Spodoptera frugiperda test (spray treatment); format: in vivo; settings: maize leaf discs, application rate 500 g/ha
Method: Example J Spodoptera Frugiperda Test (Spray Treatment) [table] To produce a suitable preparation of active compound, 1 part by weight of active compound is mixed with the stated amounts of solvent and emulsifier, and the concentrate is diluted with emulsifier-containing water to the desired concentration. Discs of maize leaves (Zea mays) are sprayed with an active compound preparation of the desired concentration and, after drying, populated with caterpillars of the armyworm (Spodoptera frugiperda). After the desired period of time, the effect in % is determined. 100% means that all caterpillars have been killed; 0% means that none of the caterpillars have been killed.

Alternaria solani = experiment: Alternaria test (tomato)/protective; format: in vivo; settings: protective, 500 ppm active compound, evaluation 7 days after inoculation
Method: Alternaria Test (Tomato)/Protective [table] To produce a suitable preparation of active compound, 1 part by weight of active compound is mixed with the stated amounts of solvent and emulsifier, and the concentrate is diluted with water to the desired concentration. To test for protective activity, young tomato plants are sprayed with the active compound preparation at the stated application rate. 1 day after the treatment, the plants are inoculated with a spore suspension of Alternaria solani and then remain at 100% relative humidity and 20° C. for 24 h. The plants then remain at 96% relative atmospheric humidity and a temperature of 20° C.

[3] = system: Blumeria graminis f sp. tritici; experiment: Blumeria test (wheat)/protective; format: in vivo; settings: protective, 1000 ppm active compound, evaluation 7 days after inoculation
Method: Blumeria Test (Wheat)/Protective [table] To produce a suitable preparation of active compound, 1 part by weight of active compound is mixed with the stated amounts of solvent and emulsifier, and the concentrate is diluted with water to the desired concentration. To test for protective activity, young plants are sprayed with the active compound preparation at the stated application rate. After the spray coating has dried on, the plants are dusted with spores of Blumeria graminis f sp. tritici.

Phytophthora infestans = format: in vivo; settings: protective, 100 ppm active compound, evaluation 3 days after inoculation
Plasmopara viticola = experiment: Plasmopara test (grapevine)/protective; format: in vivo; settings: protective, 100 ppm active compound, evaluation 6 days after inoculation
Method: Plasmopara Test (Grapevine)/Protective [table] To produce a suitable preparation of active compound, 1 part by weight of active compound is mixed with the stated amounts of solvent and emulsifier, and the concentrate is diluted with water to the desired concentration. To test for protective activity, young plants are sprayed with the active compound preparation at the stated application rate. After the spray coating has dried on, the plants are inoculated with an aqueous spore suspension of Plasmopara viticola and then remain in an incubation cabin at about 20° C. and 100% relative atmospheric humidity for 1 day. The plants are then placed in a greenhouse at about 21° C. and about 90% atmospheric humidity for 4 days. The plants are then moistened and placed in an incubation cabin for 1 day.

Venturia inaegualis = experiment: Venturia test (apple)/protective; format: in vivo; settings: protective, 100 ppm active compound, evaluation 10 days after inoculation
Method: Venturia Test (Apple)/Protective [table] To produce a suitable preparation of active compound, 1 part by weight of active compound is mixed with the stated amounts of solvent and emulsifier, and the concentrate is diluted with water to the desired concentration. To test for protective activity, young plants are sprayed with the active compound preparation at the stated application rate. After the spray coating has dried on, the plants are inoculated with an aqueous conidia suspension of the apple scab pathogen Venturia inaegualis and then remain in an incubation cabin at about […] and 100% relative atmospheric humidity for 1 day. The plants are then placed in the greenhouse at about 21° C. and a relative atmospheric humidity of about 90%.

SMILES	log P [1]	activity (caterpillars killed) [2]	also measured
COc1ccccc1C1=NOC(=O)/C1=C\c1cccs1 [U-39]	2.75	80%	
O=C1ON=C(c2ccc(F)cc2)C1=Cc1cc(Br)cs1 [I-30]	3.76	80%	
CCOc1ccc(C2=NOC(=O)C2=Cc2cccs2)cc1 [I-58]	3.41	80%	
COc1ccc(C2=NOC(=O)/C2=C\c2cccs2)cc1 [U-38]	2.95	80%	
Cc1ccc(C2=NOC(=O)C2=Cc2ccc(C)s2)cc1 [U-10]	3.67	80%	
Cc1ccsc1C=C1C(=O)ON=C1c1ccc(F)cc1 [I-32]	3.26	80%	
CC(C)Oc1ccc(C2=NOC(=O)C2=Cc2cccs2)cc1 [I-79]	3.73	80%	
O=C1ON=C(c2ccc(OC(F)(F)F)cc2)C1=Cc1cccs1 [I-55]	3.80	80%	
CC1=NOC(=O)/C1=C\c1ccco1 [A-8]			efficacy (Alternaria solani): 0%; efficacy [3]: 29%; efficacy (Phytophthora infestans): 0%; efficacy (Plasmopara viticola): 28%; efficacy (Venturia inaegualis): 6%
Cc1ccc(C2=NOC(=O)C2=Cc2cccs2)cc1 [U-2]	3.32	80%	
COc1ccc(C2=NOC(=O)C2=Cc2cccs2)cc1 [U-37]	2.95	80%	
COc1ccc(C2=NOC(=O)C2=Cc2ccc(Cl)s2)cc1 [I-43]	3.70	80%	
